In publication PMC6099591, “(2E,5E)-2,5-Bis(3-hydroxy-4-methoxybenzylidene) cyclopentanone Exerts Anti-Melanogenesis and Anti-Wrinkle Activities in B16F10 Melanoma and Hs27 Fibroblast Cells” (Molecules : A Journal of Synthetic Chemistry and Natural …, 2018):

Assays:
[1] = system: B16F10 melanoma cells; experiment: Melanin content in α-MSH-induced B16F10 cells; type: cell-based, murine; conditions: 24 h pretreatment then α-MSH (5 µM) 48 h, α-MSH only control 186%
Description: (§1) Figure 4 Inhibition of melanin contents (a) and cellular tyrosinase activity (b) of BHCP on B16F10 melanoma cells. […] Melanin content of the pellet was evaluated at 405 nm (a); intracellular tyrosinase activity was determined with L-DOPA as the substrate, and the absorbance of L-DOPA chrome was read at 492 nm (b). Data are expressed as mean ± S.E.M of three independent experiments. One-way ANOVA was used to determine the significances of differences: ^# p < 0.05 compared to the control group without α-MSH treatment. ** p < 0.01 and * p < 0.05 compared to the α-MSH-treated control group.
The effect of BHCP on α-MSH-induced melanogenesis in B16F10 cells was based on a previously used method with slight modifications. Briefly, B16F10 cells (5 × 10^4 cells/well) in 6-well plates were allowed to grow to 70–80% confluence. […] After treatment, the cells were washed twice with ice-cold PBS, dissolved in 90 µL 1 M NaOH solution including DMSO (5%) at 60 °C for 1 h, and the absorbance was measured at 405 nm with a microplate spectrophotometer (TECAN, Salzburg, Austria). To measure the amount of melanin in the experiment, the rate of inhibition in the treatment groups were calculated from the absorbance of the known concentrations of synthetic melanin, which were corrected to the total amount of protein that was present in the supernatant of the cell lysates. The absorbance of untreated cells was measured in triplicate.

[2] = system: B16F10 melanoma cells; experiment: Cell viability, EZ-Cytox assay, B16F10; type: cell-based, murine; conditions: up to 10 µM, 48 h
Description: (§2) Figure 3 Cell viability of BHCP on B16F10 melanoma (a) and Hs27 fibroblast cells (b). Cells were treated with various concentrations (0–10 μM) of BHCP for 24 h and 48 h, respectively, and cell viability was measured by EZ-Cytox assay.
(§3) The viability of cells was assessed using the EZ-Cytox kit assay. In brief, B16F10 cells and Hs27 fibroblasts were seeded into a 96-well plate at a density of 1 × 10^4 cells/well and incubated at 37 °C for 24 h. The cells were fed fresh, serum-free DMEM that contained different concentrations (0, 1, 2, 5, and 10 µM) of BHCP, and incubated for 24 and 48 h. Subsequently, 10 μL of EZ-Cytox solution was loaded into each well and the cells were incubated for 2–4 h. The absorbance measurement of cells in the absence of any treatment was regarded as 100% cell survival. Each treatment was performed in triplicate and each experiment was repeated three times.

[3] = biological target: Mushroom tyrosinase (EC 1.14.18.1) (Agaricus bisporus, UniProt C7FF04); experiment: Kinetic analysis of tyrosinase inhibition (Lineweaver-Burk and Dixon plots); type: biochemical; conditions: Lineweaver-Burk plot
Chain of Mushroom tyrosinase (EC 1.14.18.1) (G1K3P4 entry or part of it): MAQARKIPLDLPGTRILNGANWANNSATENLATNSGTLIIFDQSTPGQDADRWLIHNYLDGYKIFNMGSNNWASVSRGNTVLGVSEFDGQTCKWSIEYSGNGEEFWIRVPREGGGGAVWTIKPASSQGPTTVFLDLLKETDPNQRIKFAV
Chain of Mushroom tyrosinase (EC 1.14.18.1) (C7FF04 1-392): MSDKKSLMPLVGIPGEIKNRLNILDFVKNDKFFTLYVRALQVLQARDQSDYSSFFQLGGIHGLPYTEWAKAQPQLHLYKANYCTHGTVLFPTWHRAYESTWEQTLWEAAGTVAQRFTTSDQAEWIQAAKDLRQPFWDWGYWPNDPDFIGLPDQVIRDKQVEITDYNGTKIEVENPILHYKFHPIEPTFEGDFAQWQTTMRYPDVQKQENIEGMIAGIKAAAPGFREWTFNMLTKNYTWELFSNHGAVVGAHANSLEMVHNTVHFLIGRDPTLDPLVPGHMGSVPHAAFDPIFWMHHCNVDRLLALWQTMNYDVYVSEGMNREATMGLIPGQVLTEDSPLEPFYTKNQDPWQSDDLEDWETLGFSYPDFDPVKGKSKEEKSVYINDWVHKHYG
Source text: Furthermore, the mechanism responsible for tyrosinase inhibition by BHCP was investigated by enzyme kinetic analysis in the present study (Table 1 and Figure 2). Lineweaver–Burk plots were drawn using the data obtained from the kinetic studies, and the inhibition constant (Ki) was obtained from the Dixon plots. The Lineweaver–Burk double reciprocal plots indicated competitive-type inhibition. […] Moreover, intercepts on the x-axis of Dixon plots are commonly used to determine the types of enzyme inhibition constants (Ki) for an enzyme–inhibitor complex, where the value of the x-axis indicates the value of −Ki.
Figure 2 Lineweaver–Burk (a,c) and Dixon (b,d) plots for tyrosinase enzyme inhibition by BHCP. […]
To determine the kinetic mechanisms, two kinetic methods (Lineweaver–Burk and Dixon plots) were complementarily used. For the Lineweaver–Burk double reciprocal plots (a plot of 1/enzyme velocity (1/V) versus 1/substrate concentration (1/[S])), the inhibition type was determined using various concentrations of L-tyrosine (1, 2, and 4 mM) and L-DOPA (0.5, 1, and 2 mM) as substrates in the presence of different concentrations of BHCP. […]

[4] = system: tyrosinase; experiment: Western blot, tyrosinase protein level in α-MSH-stimulated B16F10 cells; type: cell-based, murine; conditions: 1 and 10 µM, 24 h, then α-MSH (5 µM) 48 h; normalized by β-actin
Description: (§4) Figure 5 Effects of BHCP on the expression levels of phosphorylation of CREB, MITF, and tyrosinase in α-MSH-stimulated B16F10 melanoma cells. Cells were preincubated with or without 1 and 10 μM BHCP for 24 h and were stimulated with α-MSH (5 μM) for an additional 48 h. Harvested cells were lysed and then examined for the expression levels of p-CREB, CREB, MITF, and tyrosinase by Western blotting (a); The protein levels of tyrosinase (b); MITF (c); and p-CREB (d) were quantitated with CS analyzer software. Tyrosinase, MITF, and p-CREB protein levels were normalized by β-actin. Data are expressed as mean ± S.E.M. of three independent experiments. ^# p < 0.05 versus untreated control; * p < 0.05 versus α-MSH stimulation.
(§5) Lysate samples were boiled for 10 min in gel-loading buffer (125 mM Tris-HCl, 4% sodium dodecyl sulfate (SDS), 10% 2-mercaptoethanol, and 0.2% bromophenol blue; pH 6.8) at a volume ratio of 1:1. The total protein equivalents for each sample were separated by SDS-polyacrylamide gel electrophoresis (PAGE) using acrylamide gels as based on the procedure described by Laemmli and transferred to PVDF membranes at 80 V for 2 h using the wet-transfer system. […] Antibody labeling was detected by enhanced chemiluminescence in accordance with the manufacturer’s instructions. Protein quantitation was performed using the Davinch-Chemi TM. […]

[5] = system: MMP-1; experiment: Western blot, MMP-1 expression in UV-induced Hs27 cells; type: cell-based, human; conditions: 1 and 10 µM, 24 h, then UV (50 mJ/cm2) 24 h
Description: (§6) Figure 7 Effects of BHCP on the expression levels of MMP-1, MMP-9, MMP-12, and MMP-13 in UV-induced Hs27 human fibroblast cells. Cells were preincubated with or without 1 and 10 μM BHCP for 24 h and were stimulated with UV (50 mJ/cm^2) for an additional 24 h. Harvested cells were lysed and then examined for the expression levels of MMP-1, MMP-9, MMP-12, and MMP-13 by Western blotting (a); The protein levels of MMP-1 (b); MMP-9 (c); MMP-12 (d); and MMP-13 (e) were quantitated with CS analyzer software. MMP-1, MMP-9, MMP-12, and MMP-13 protein levels were normalized by β-actin. Data are expressed as mean ± S.E.M. of three independent experiments. ^# p < 0.05 versus untreated control; * p < 0.05 versus UV stimulation.
as §5

[6] = system: MITF; experiment: Western blot, MITF protein level in α-MSH-stimulated B16F10 cells; type: cell-based, murine; conditions: 1 and 10 µM, 24 h, then α-MSH (5 µM) 48 h; normalized by β-actin
Description: as §4, §5

[7] = system: MMP-12; experiment: Western blot, MMP-12 expression in UV-induced Hs27 cells; type: cell-based, human; conditions: 1 and 10 µM, 24 h, then UV (50 mJ/cm2) 24 h
Description: as §6, §5

[8] = system: p-CREB; experiment: Western blot, phosphorylation of CREB in α-MSH-stimulated B16F10 cells; type: cell-based, murine; conditions: 1 and 10 µM, 24 h, then α-MSH (5 µM) 48 h
Description: as §4, §5

[9] = system: MMP-13; experiment: Western blot, MMP-13 expression in UV-induced Hs27 cells; type: cell-based, human; conditions: 1 and 10 µM, 24 h, then UV (50 mJ/cm2) 24 h
Description: as §6, §5

[10] = system: cellular tyrosinase in B16F10 melanoma cells; experiment: Cellular tyrosinase activity assay in α-MSH-induced B16F10 cells; type: cell-based, murine; conditions: 24 h pretreatment then α-MSH (5 µM) 48 h, α-MSH only control 181%
Description: as §1
Cellular tyrosinase activity assay was performed by measuring the rate of oxidation of L-DOPA [35]. B16F10 cells at a density of 5 × 10^4/cells were placed in 6-well dishes and incubated overnight. […] The cells were washed with PBS and lysed in a solution containing 100 µL of 50 mM phosphate buffer (pH 6.5), 0.1 mM phenylmethylsulfonylfluoride (PMSF), and 1% Triton X-100. Then, the cells were placed in a deep freezer machine (−80 °C) for 30 min. After defrosting the cells, the cellular extracts were purified by centrifugation at 12,000 rpm for 30 min at 4 °C. A total of 80 µL the supernatant and 20 µL of L-DOPA (2 mg/mL) were added to a 96-well plate, and the absorbance at a wavelength of 492 nm was measured every 10 min during 1 h at 37 °C with an ELISA plate reader (TECAN, Salzburg, Austria).

[11] = system: Hs27 fibroblast cells; experiment: Cell viability, EZ-Cytox assay, Hs27; type: cell-based, human; conditions: up to 10 µM, 48 h
Description: as §2, §3

[12] = system: p65; experiment: Western blot, cytosol p65 in UV-induced Hs27 cells; type: cell-based, human; conditions: 1 and 10 µM, 24 h, then UV (50 mJ/cm2) 24 h; normalized to β-actin
Description: (§7) Figure 6 Effects of BHCP on the expression levels of p-p65 (Ser536) in UV-induced Hs27 human fibroblast cells. Cells were preincubated with or without 1 and 10 μM BHCP for 24 h and were stimulated with UV (50 mJ/cm^2) for an additional 24 h. Nuclear protein levels of p-p65 (Ser536) were determined by Western blotting (a); After normalization to TFIIB, relative ratios were quantitated with CS analyzer software (b); Cytosol protein levels of p65 was determined by Western blotting (c); After normalization to β-actin, ratios were quantitated with CS analyzer software (d). Data are expressed as mean ± S.E.M. of three independent experiments. ^# p < 0.05 versus untreated control; * p < 0.05 and ** p < 0.01 versus […].
(§8) The Hs27 cells were washed with ice-cold PBS and harvested. […]
(§9) Lysate samples were boiled for 10 min in gel-loading buffer (125 mM Tris-HCl, 4% sodium dodecyl sulfate (SDS), 10% 2-mercaptoethanol, and 0.2% bromophenol blue; pH 6.8) at a volume ratio of 1:1. […] Antibody labeling was detected by enhanced chemiluminescence in accordance with the manufacturer’s instructions. Protein quantitation was performed using the Davinch-Chemi TM. […]

[13] = system: MMP-9; experiment: Western blot, MMP-9 expression in UV-induced Hs27 cells; type: cell-based, human; conditions: 1 and 10 µM, 24 h, then UV (50 mJ/cm2) 24 h
Description: as §6, §5

[14] = system: p-p65 (Ser536); experiment: Western blot, nuclear p-p65 (Ser536) in UV-induced Hs27 cells; type: cell-based, human; conditions: 1 and 10 µM, 24 h, then UV (50 mJ/cm2) 24 h; normalized to TFIIB
Description: as §7, §8, §9

Inhibition Type (L-DOPA) ([3]; substrate L-DOPA)	Inhibition Type (L-Tyrosine) ([3]; substrate L-tyrosine)	SMILES	Melanin content ([1]; 1 µM) [%]	Melanin content ([1]; 5 µM) [%]	Melanin content ([1]; 10 µM) [%]	Cell viability (survival) of B16F10 cells [2]	Tyrosinase protein level [4]	MMP-1 expression [5]	MITF protein level [6]	MMP-12 expression [7]	Phosphorylation of CREB [8]	MMP-13 expression [9]	Cellular tyrosinase activity ([10]; 1 µM) [%]	Cellular tyrosinase activity ([10]; 5 µM) [%]	Cellular tyrosinase activity ([10]; 10 µM) [%]	Cell viability (survival) of Hs27 cells [11]	Total p65 in the cytoplasm [12]	MMP-9 expression [13]	Nucleus p-p65 (Ser536) protein level [14]	Cellular tyrosinase activity [10] [%]
competitive inhibitor	competitive inhibitor	COc1ccc(/C=C2\CC/C(=C\c3ccc(OC)c(O)c3)C2=O)cc1O [BHCP, (2E,5E)-2,5-bis(3-hydroxy-4-methoxybenzylidene)cyclopentanone]	113	106	102	did not reduce the survival	decreased these protein levels	decreased expression in a dose-dependent manner	decreased these protein levels	decreased expression in a dose-dependent manner	significantly suppressed	decreased expression in a dose-dependent manner	120	116	105	did not reduce the survival	restored	decreased expression in a dose-dependent manner	decreased	–
–	–	O=c1cc(CO)occ1O [Kojic acid, reference compound]	–	–	–	–	–	–	–	–	–	–	–	–	–	–	–	–	–	131
